This passage reports IC50 results from patent US20260042764A1, “COMPOSITIONS AND METHODS FOR INHIBITION OF KRAS” (TheRas, Inc., priority 2022, published 2026).

The target in assay [1] is T1, Avi-KRAS WT (2-169) GTP/RAF1 RBD-3xFLAG (51-131) (Homo sapiens, UniProt P01116).
T1 construct: Avi-KRAS WT (2-169)
In words: Raf1-KRAS WT-GTP disruption HTRF assay (Biological Example 3). It counts as binding. To be noted: KRAS WT, GTP-loaded. In outline:
(§1)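 An HTRF assay measured disruption of 50 nM Avi-KRAS (2-169)-GTP (WT, G12C, G12D or G12V) bound to RAF1 RBD-3xFLAG (51-131). Buffer was Tris pH 7.5 with 5 mM MgCl2 and 10% DMSO. Compounds (30–0.005 μM, 3-fold, 10 points) were incubated 1 h at room temperature, and activity is given as % of DMSO.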
(TR-FRET usually uses a lanthanide donor and a delayed reading to cut background.)

Assay [2] deals with T2, Avi-KRAS G12V (2-169) GTP/RAF1 RBD-3xFLAG (51-131) (Homo sapiens, UniProt P01116, G12V).
T2 construct: Avi-KRAS G12V (2-169)
T2 sequence (P01116 2-169 isoform P01116-2 G12V): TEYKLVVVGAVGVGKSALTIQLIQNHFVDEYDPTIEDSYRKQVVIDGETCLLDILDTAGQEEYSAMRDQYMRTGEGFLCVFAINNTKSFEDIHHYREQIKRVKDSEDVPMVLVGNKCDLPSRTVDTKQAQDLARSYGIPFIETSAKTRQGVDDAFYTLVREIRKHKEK
In words: Raf1-KRAS G12V-GTP disruption HTRF assay (Biological Example 3). It counts as binding. The settings on record: KRAS G12V, GTP-loaded. In a few lines: as §1

Assay [3] deals with GP2d cells (KRAS G12D). In words: Cell-based pERK HTRF assay in GP2d cell (Biological Example 2). The settings on record: GP2d, GP2d (KRAS G12D) cells. In outline:
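GP2d (KRAS G12D) cells were plated in DMEM/10% FBS and treated the next day for 60 min with compounds. Dosing used 9-point half-log series starting at 1 μM or 100 nM in 0.25% DMSO. Lysates were read by HTRF pERK (d2/Eu cryptate antibodies) after 4–24 h at room temperature, with excitation at 320 nm and emission at 615 nm.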

Assay [4] deals with SW620 cells (KRAS G12V). In words: Cell-based pERK HTRF assay in SW620 cell (Biological Example 4). The settings on record: Homo sapiens, SW-620, SW620 (KRAS G12V) cells. In outline: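 SW620 cells were treated for 4 h with compound in a 9-point half-log series from 1 μM top (0.25% DMSO), then lysed. Phospho-ERK was detected by HTRF with d2 and Eu cryptate antibodies after 4–24 h at room temperature, read at 615 nm emission.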

The target of assay [5] is T3, Avi-KRAS G12C (2-169) GTP/RAF1 RBD-3xFLAG (51-131) (Homo sapiens, UniProt P01116, G12C).
T3 construct: Avi-KRAS G12C (2-169)
T3 sequence (P01116 2-169 isoform P01116-2 G12C): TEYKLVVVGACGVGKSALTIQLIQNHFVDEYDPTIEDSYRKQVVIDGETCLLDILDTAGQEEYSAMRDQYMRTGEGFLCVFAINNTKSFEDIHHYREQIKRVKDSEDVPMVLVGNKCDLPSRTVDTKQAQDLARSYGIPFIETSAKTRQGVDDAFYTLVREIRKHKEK
As to the kind of experiment: Raf1-KRAS G12C-GTP disruption HTRF assay (Biological Example 3). To be noted: KRAS G12C, GTP-loaded. It counts as binding. In a few lines:
as §1

Assay [6] deals with T4, Avi-KRAS G12D (2-169) GTP/RAF1 RBD-3xFLAG (51-131) (Homo sapiens, UniProt P01116, G12D).
T4 construct: Avi-KRAS G12D (2-169)
T4 sequence (P01116 2-169 isoform P01116-2 G12D): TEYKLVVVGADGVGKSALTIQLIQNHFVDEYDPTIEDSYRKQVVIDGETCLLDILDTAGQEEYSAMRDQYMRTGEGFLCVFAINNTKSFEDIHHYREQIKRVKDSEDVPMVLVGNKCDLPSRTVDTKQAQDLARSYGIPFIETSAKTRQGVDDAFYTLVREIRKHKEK
In words: Raf1-KRAS G12D-GTP disruption HTRF assay (Biological Example 3). It counts as binding. To be noted: KRAS G12D, GTP-loaded. In outline: as §1

T1 sequence (P01116 2-169 isoform P01116-2): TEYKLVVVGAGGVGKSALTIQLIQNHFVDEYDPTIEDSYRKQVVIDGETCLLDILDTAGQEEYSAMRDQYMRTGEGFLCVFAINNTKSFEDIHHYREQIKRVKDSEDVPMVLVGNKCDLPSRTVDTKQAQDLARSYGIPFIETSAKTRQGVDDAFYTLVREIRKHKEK

Take `CCN(c1nc(OC[C@@]23CCCN2C[C@H](F)C3)nc2c(F)c(-c3ccc(F)c4sc(N)c(C#N)c34)c(C(F)(F)F)cc12)[C@H]1C[C@H](COC)N(C(=O)[C@@H]2CCO2)C1` (atropisomer, axis not shown) [Compound 853]: the IC50 (usually the midpoint of a concentration-inhibition curve) in assay [1] was 100 to 1000 nM; in assay [2], 100 to 1000 nM; in assay [3] it was < 100 nM; in assay [4] it was < 100 nM; in assay [5] it was 100 to 1000 nM; in assay [6], 100 to 1000 nM.
With `CCN(c1nc(OC[C@@]23CCCN2C[C@H](F)C3)nc2c(F)c(-c3ccc(F)c4sc(N)c(C#N)c34)c(C(F)(F)F)cc12)[C@H]1C[C@H](COC)N(C(=O)[C@@H]2CC2(F)F)C1` (atropisomer, axis not shown) [Compound 854], the IC50 is 100 to 1000 nM in assay [1]; 100 to 1000 nM in assay [2]; < 100 nM in assay [3]; < 100 nM in assay [4]; 100 to 1000 nM in assay [5]; 100 to 1000 nM in assay [6].
For the compound `CN(Cc1cocn1)c1nc(OC[C@@]23CCCN2C[C@H](F)C3)nc2c(F)c(-c3ccc(F)c4sc(N)c(C#N)c34)c(C(F)(F)F)cc12` (atropisomer, axis not shown) [Compound 855], the IC50 in assay [1] is 100 to 1000 nM; in assay [2] it was 100 to 1000 nM; in assay [3] it was < 100 nM; in assay [4] it was < 100 nM; in assay [5], 100 to 1000 nM; in assay [6], 100 to 1000 nM.
Consider `CN(Cc1ccon1)c1nc(OC[C@@]23CCCN2C[C@H](F)C3)nc2c(F)c(-c3ccc(F)c4sc(N)c(C#N)c34)c(C(F)(F)F)cc12` (atropisomer, axis not shown) [Compound 856], for which the IC50 in assay [1] is 1000 to 10000 nM; in assay [2] it was 100 to 1000 nM; in assay [3] it was < 100 nM; in assay [4], < 100 nM; in assay [5] it was 1000 to 10000 nM; in assay [6] it was 100 to 1000 nM.
On to `CCN(c1nc(OC[C@@]23CCCN2C[C@H](F)C3)nc2c(F)c(-c3ccc(F)c4sc(N)c(C#N)c34)c(C(F)(F)F)cc12)[C@H]1CCN(C(=O)C(CF)CF)C1` (atropisomer, axis not shown) [Compound 857], for which the IC50 in assay [1] was 100 to 1000 nM; in assay [2], 100 to 1000 nM; in assay [3], < 100 nM; in assay [4], < 100 nM; in assay [5], 100 to 1000 nM; in assay [6], 100 to 1000 nM.
Take `CCN(c1nc(OC[C@@]23CCCN2C[C@H](F)C3)nc2c(F)c(-c3ccc(F)c4sc(N)c(C#N)c34)c(C(F)(F)F)cc12)[C@@H]1CN2C(=O)N(C)C[C@]2(C)C1` (atropisomer, axis not shown) [Compound 858]: the concentration for half-maximal inhibition (IC50) in assay [1] was 100 to 1000 nM; in assay [2], 100 to 1000 nM; in assay [3], < 100 nM; in assay [4], < 100 nM; in assay [5] it was 100 to 1000 nM; in assay [6] it was 100 to 1000 nM.
Consider `[2H][C@]1(N(CC)c2nc(OC[C@@]34CCCN3C[C@H](F)C4)nc3c(F)c(-c4ccc(F)c5sc(N)c(C#N)c45)c(C(F)(F)F)cc23)CCN(C(=O)N(C)C)C1` (atropisomer, axis not shown) [Compound 859], for which the half-maximal inhibitory concentration (IC50) in assay [1] was 100 to 1000 nM; in assay [2], 100 to 1000 nM; in assay [3], < 100 nM; in assay [4], < 100 nM; in assay [5], 100 to 1000 nM; in assay [6] it was 100 to 1000 nM.
As for `[2H][C@]1(N(CC)c2nc(OC[C@@]34CCCN3C[C@H](F)C4)nc3c(F)c(-c4ccc(F)c5sc(N)c(C#N)c45)c(C(F)(F)F)cc23)CCN(C(=O)C(C)C)C1` (atropisomer, axis not shown) [Compound 860], the IC50 was 100 to 1000 nM in assay [1]; 100 to 1000 nM in assay [2]; < 100 nM in assay [3]; < 100 nM in assay [4]; 100 to 1000 nM in assay [5]; 100 to 1000 nM in assay [6].
`CCN(Cc1cccnc1)c1nc(OC[C@@]23CCCN2C[C@H](F)C3)nc2c(F)c(-c3ccc(F)c4sc(N)c(C#N)c34)c(C(F)(F)F)cc12` (atropisomer, axis not shown) [Compound 862]: the IC50 is 1000 to 10000 nM in assay [1]; 1000 to 10000 nM in assay [2]; < 100 nM in assay [3]; < 100 nM in assay [4]; 1000 to 10000 nM in assay [5]; 1000 to 10000 nM in assay [6].
As to `CCN(c1nc(OC[C@@]23CCCN2C[C@H](F)C3)nc2c(F)c(-c3ccc(F)c4sc(N)c(C#N)c34)c(C(F)(F)F)cc12)[C@H]1C[C@H]2[C@H](C)N(C)C(=O)N2C1` (atropisomer, axis not shown) [Compound 863], the IC50 in assay [1] was 100 to 1000 nM; in assay [2] it was ≤ 100 nM; in assay [3], < 100 nM; in assay [4], < 100 nM; in assay [5], ≤ 100 nM; in assay [6], ≤ 100 nM.
On to `CCN(c1nc(OC[C@@]23CCCN2C[C@H](F)C3)nc2c(F)c(-c3ccc(F)c4sc(N)c(C#N)c34)c(C(F)(F)F)cc12)[C@H]1C[C@H]2CC(C)(C)C(=O)N2C1` (atropisomer, axis not shown) [Compound 864], for which the IC50 is 100 to 1000 nM in assay [1]; 100 to 1000 nM in assay [2]; < 100 nM in assay [3]; < 100 nM in assay [4]; 100 to 1000 nM in assay [5]; ≤ 100 nM in assay [6].
Take `CN(Cc1ccccn1)c1nc(OC[C@@]23CCCN2C[C@H](F)C3)nc2c(F)c(-c3ccc(F)c4sc(N)c(C#N)c34)c(C(F)(F)F)cc12` (atropisomer, axis not shown) [Compound 865]: the IC50 in assay [1] is 1000 to 10000 nM; in assay [2], 1000 to 10000 nM; in assay [3], < 100 nM; in assay [4] it was < 100 nM; in assay [5], 1000 to 10000 nM; in assay [6], 100 to 1000 nM.
Take `CCN(c1nc(OC[C@@]23CCCN2C[C@H](F)C3)nc2c(F)c(-c3ccc(F)c4sc(N)c(C#N)c34)c(C(F)(F)F)cc12)[C@H]1C[C@H]2C[C@@H](C)C(=O)N2C1` (atropisomer, axis not shown) [Compound 866]: the IC50 is ≤ 100 nM in assay [1]; ≤ 100 nM in assay [2]; < 100 nM in assay [3]; < 100 nM in assay [4]; ≤ 100 nM in assay [5]; ≤ 100 nM in assay [6].
With `CN(Cc1ccncc1)c1nc(OC[C@@]23CCCN2C[C@H](F)C3)nc2c(F)c(-c3ccc(F)c4sc(N)c(C#N)c34)c(C(F)(F)F)cc12` (atropisomer, axis not shown) [Compound 867], the IC50 is 1000 to 10000 nM in assay [1]; 1000 to 10000 nM in assay [2]; < 100 nM in assay [3]; < 100 nM in assay [4]; 1000 to 10000 nM in assay [5]; 1000 to 10000 nM in assay [6].
With `CCN(c1nc(OC[C@@]23CCCN2C[C@H](F)C3)nc2c(F)c(-c3ccc(F)c4sc(N)c(C#N)c34)c(C(F)(F)F)cc12)[C@H]1CCN(C(=O)[C@H]2CCO2)[C@H]1C` (atropisomer, axis not shown) [Compound 868], the IC50 in assay [1] is 1000 to 10000 nM; in assay [2] it was 1000 to 10000 nM; in assay [3] it was < 100 nM; in assay [4], 100 to 1000 nM; in assay [5], 1000 to 10000 nM; in assay [6], 100 to 1000 nM.
For `CCN(c1nc(OC[C@@]23CCCN2C[C@H](F)C3)nc2c(F)c(-c3ccc(F)c4sc(N)c(C#N)c34)c(C(F)(F)F)cc12)[C@H]1C[C@H](COC)N(C(=O)[C@@H]2C[C@@H]2F)C1` (atropisomer, axis not shown) [Compound 869], the 50% inhibitory concentration (IC50) in assay [1] is 100 to 1000 nM; in assay [2] it was 100 to 1000 nM; in assay [3], < 100 nM; in assay [4], < 100 nM; in assay [5] it was 100 to 1000 nM; in assay [6], 100 to 1000 nM.
Turning to `CN(Cc1cnccn1)c1nc(OC[C@@]23CCCN2C[C@H](F)C3)nc2c(F)c(-c3ccc(F)c4sc(N)c(C#N)c34)c(C(F)(F)F)cc12` (atropisomer, axis not shown) [Compound 872], the IC50 was 1000 to 10000 nM in assay [1]; 100 to 1000 nM in assay [2]; < 100 nM in assay [3]; < 100 nM in assay [4]; 100 to 1000 nM in assay [5]; 100 to 1000 nM in assay [6].
For `CCN(c1nc(OC[C@@]23CCCN2C[C@H](F)C3)nc2c(F)c(-c3ccc(F)c4sc(N)c(C#N)c34)c(C(F)(F)F)cc12)[C@H]1CC[C@@](C)(C(=O)N(C)C)C1` (atropisomer, axis not shown) [Compound 873], the IC50 in assay [1] was 100 to 1000 nM; in assay [2], 1000 to 10000 nM; in assay [3], < 100 nM; in assay [4], < 100 nM; in assay [5], 1000 to 10000 nM; in assay [6], 1000 to 10000 nM.
